What was measured:
[1] = system: T1, MYC:MAX; experiment: Gaussia luciferase complementation (GLuc) MYC:MAX; assay type: cell-based, human; settings: 25 μM, 17 hours, HEK293 cells
T1 construct: fused to full length MYC (MYC-GLuc-C) and MAX (MAX-GLuc-N), respectively; expressed in transfected cells; host or cells: HEK293
Experimental: The protein fragment complementation assay using the Gaussia luciferase has been described. 0.2–0.4 μg of each GLuc-construct (see Supplementary Information) together with 0.05–0.2 μg pCMV-Luc (Firefly luciferase) were transiently transfected into HEK293 or COS-7 cells in 6-well plates. 24 hours later cells were treated with compound (10–25 μM) or DMSO. After another 17 hours, the cells were harvested and lyzed in passive lysis buffer (Promega) supplemented with complete protease inhibitor (Roche). After 60 min incubation at room temperature 20 μM D-luciferin was added (substrate of Firefly luciferase) and luminescence was measured in a Lumat LB9501 (Berthold) or OmegaFluostar (BMG Labtech) luminometer. Directly after, Gaussia luciferase substrate Coelenterazine (Promega) was added to a final concentration of 20 μM in a mixture with “Stop n’ Glow” (Promega) and the luciferase activity was measured. The ratio between Gaussia and Firefly luciferase values were calculated and normalized to DMSO-treated control cells.

[2] = target: T2, MYCbHLHZip:MAXbHLHZip (Homo sapiens, UniProt P01106); experiment: SPR MYC:MAX heterodimer formation assay; assay type: binding; settings: 100 nM MYCbHLHZip over immobilized MAXbHLHZip
T2 construct: 6xHis (N); made in house; host or cells: E. coli BL21 (DE3), pET28a
T2 sequence (P01106 367-447 limits assumed): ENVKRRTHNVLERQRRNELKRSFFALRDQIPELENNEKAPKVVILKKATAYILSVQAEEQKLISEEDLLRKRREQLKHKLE
Experimental: The SPR method is a highly sensitive assay to determine the affinity between protein and ligand and to measure the kinetics of the interaction. In the SPR MYC:MAX interaction assay, MAXbHLHZip was covalently attached onto a sensor chip and MYCbHLHZip pre-mixed with compound was injected over the surface and thereafter allowed to dissociate.
The SPR experiments were performed at 25 °C using a Biacore T200 (GE Healthcare) instrument kindly provided by SciLifeLab Solna. An amino coupling procedure was used to immobilize protein on a CM5 sensor chip (GE Healthcare). Sensorgrams were generated by subtraction of the reference (blank immobilized) surface. All details will be described in Castell et al. (manuscript in preparation). In general, for the MYC:MAX interaction assay, 200–500 RU of MAXbHLHZip was immobilized and 100 nM MYCbHLHZip pre-incubated with compound in PBS supplemented with 0.05% Tween-20 and 1% DMSO was injected with a flow rate of 30 µl/min and allowed to dissociate. MAX was regenerated by injection of PBS buffer supplemented with Urea.

[3] = target: MXD1 (MAD1) bHLHZip (Homo sapiens, UniProt Q05195); experiment: SPR binding to MXD1 (MAD1)
MXD1 (MAD1) bHLHZip, sequence (Q05195 56-137 limits assumed): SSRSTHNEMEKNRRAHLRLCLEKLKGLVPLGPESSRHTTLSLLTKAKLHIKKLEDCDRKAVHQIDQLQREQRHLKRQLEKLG
Experimental: (§1) The MYC SPR assay was carried out as described above with MYCbHLHZip immobilized to a level of 800–1000 RU. For kinetic binding experiments, a Langmuir 1:1 binding event was applied using the Biacore T200 Evaluation Software 2.0 (GE Healthcare) to determine association (ka) and dissociation (kd) constants of the compound and to calculate affinity (KD) by the formula; KD = kd/ka. Binding responses from equilibrium binding experiments were plotted against compound concentration and KD values were determined at 50% of the theoretical Rmax with the formula Rmax = (MW analyte/MW ligand) × immobilized ligand level on the chip (RU) × stoichiometry (1:1). Same coupling method described above was used to immobilize the control proteins. MAX was immobilized to approximately 2000 RU, MAD to 600 RU, BSA to 1000 RU, p53 to 3000 RU and BCL-XL, to 500 RU.

[4] = system: T3, p53 core protein; experiment: SPR binding to p53
T3 construct: Truncated p53 core protein was a kind gift from Klas Wiman; gift from Klas Wiman, CCK, Karolinska Institutet
Experimental: as §1

[5] = system: T4, BSA; experiment: SPR binding to BSA; set-up: species or system bovine
T4 construct: purchased NanoTemper (included in the MST kit)
Experimental: as §1

[6] = system: Burkitt's lymphoma cell lines Mutu, Daudi and ST486; experiment: Growth of Burkitt's lymphoma cell lines; assay type: cell-based
Experimental: Cell proliferation assays. Cell growth and viability was estimated in triplicates with WST-1 (Roche) or Resazurin sodium salt (Sigma-Aldrich) assays in medium at 37°C and 5% CO 2 for 2 hours after which absorbance or fluorescence, respectively, was measured with an Omega Fluostar (BMG Labtech) in a 96 well plate format. Cell counting was done in 96 well plates with CellTracker Green (ThermoFisher) for 30 min in the incubator, after which DAPI was added for 5 min. Images were taken in the green (FITC) and blue (DAPI) channels using a fluorescence microscope (ImageXpress Micro, Molecular Devices). […]
(§2) 0.7% agarose. […]

[7] = system: HO15.19 (MYC knockout) Rat1 fibroblasts; experiment: WST-1 growth assay, HO15.19 (MYC knockout) Rat1 fibroblasts; assay type: cell-based, rat
Experimental: Cell proliferation assays. Cell growth and viability was estimated in triplicates with WST-1
(Roche) or Resazurin sodium salt (Sigma-Aldrich) assays in medium at 37°C and 5% CO 2 for
2 hours after which absorbance or fluorescence, respectively, was measured with an Omega
Fluostar (BMG Labtech) in a 96 well plate format. […]
as §2

[8] = system: hTERT; set-up: method as in PMID 23173022; settings: found artificial, unspecific DNA binding; cited from earlier work
[9] = system: HDM2; set-up: method as in PMID 19202599; settings: cited from earlier work
[10] = system: p53; set-up: method as in PMID 19202599; settings: cited from earlier work

For `CCOc1ccc2nc3cc(/N=N/c4ccc(N)nc4N)ccc3c(N)c2c1` [MYCMI-6], which “MYC:MAX GLuc activity” value [1] is on record?
The value was “most potent”.

What about the IC50 [2] of the same compound?
Its IC50 is 3800 nM.

And the “binding to MXD1 (MAD1) (SPR)” value [3]?
The value was “negligible”.

What about the “binding to p53 (SPR)” value [4] of the same compound?
The value was “negligible”.

What about the “binding to BSA (SPR)” value [5] of the same compound?
Its value is “negligible”.

What about the GI50 ([6]; Burkitts lymphoma cell, Mutu, Daudi, ST486, read-out: average GI50, Burkitt's lymphoma cells) of the same compound?
Its GI50 is 500 nM.

And the “lowest IC50/GI50 of tumor cell growth” value ([6]; neuroblastoma and Burkitt's lymphoma cells with deregulated MYCN/MYC, as low as)?
The value was ≥ 500 nM.

And the “growth of MYC null (HO15.19) cells” value [7]?
Its value is “did not significantly affect growth”.

What about the “IC50 for hTERT relative to MYC:MAX in vitro” value [8] of the same compound?
The value was “approximately 10 fold”.

What about the “IC50 for HDM2 relative to MYC:MAX in vitro” value [9] of the same compound?
The value was “approximately 10 fold”.

And the “concentrations causing increased expression of p53 in cells” value [10]?
The value was ≥ 5 µM.
